Reference: PubChem BioAssay AID1963442 (Molecular Pharmacology Branch, DTP, NCI, 2024)

Test system: MPNST complex spheroid with HUVEC/MSC, growth, % test/control
Assay: Anticancer human tumor MPNST cell line growth inhibition [Asc];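 further: compounds left on spheroids for seven days before reading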
Settings: for IC50: curve of first compound; for viability, T/C: stronger effect = lower value
Summary of the method: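 Stromal components (HUVEC and hMSC) are co-assembled with the cancer cells into multicellular spheroids. Drugs are then added singly or paired, at concentrations falling by half-log increments from a clinically achievable maximum, capped at 10 microM without known Cmax.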

[1] = second compound 0.03 µM, first compound 0.0316 µM
[2] = second compound 0.03 µM, first compound 0.1 µM
[3] = second compound 0.03 µM, first compound 0.316 µM
[4] = second compound 0.03 µM, first compound 1 µM
[5] = second compound 0.03 µM, first compound 3.16 µM
[6] = second compound 0.03 µM, first compound 10 µM
[7] = second compound 0.0949 µM, first compound 0.0316 µM
[8] = second compound 0.0949 µM, first compound 0.1 µM
[9] = second compound 0.0949 µM, first compound 0.316 µM
[10] = second compound 0.0949 µM, first compound 1 µM
[11] = second compound 0.0949 µM, first compound 3.16 µM
[12] = second compound 0.0949 µM, first compound 10 µM
[13] = second compound 0.3 µM, first compound 0.0316 µM
[14] = second compound 0.3 µM, first compound 0.1 µM
[15] = second compound 0.3 µM, first compound 0.316 µM
[16] = second compound 0.3 µM, first compound 1 µM
[17] = second compound 0.3 µM, first compound 3.16 µM
[18] = second compound 0.3 µM, first compound 10 µM
[19] = second compound 0.949 µM, first compound 0.0316 µM
[20] = second compound 0.949 µM, first compound 0.1 µM
[21] = second compound 0.949 µM, first compound 0.316 µM
[22] = second compound 0.949 µM, first compound 1 µM
[23] = second compound 0.949 µM, first compound 3.16 µM
[24] = second compound 0.949 µM, first compound 10 µM
[25] = second compound 3 µM, first compound 0.0316 µM
[26] = second compound 3 µM, first compound 0.1 µM
[27] = second compound 3 µM, first compound 0.316 µM
[28] = second compound 3 µM, first compound 1 µM
[29] = second compound 3 µM, first compound 3.16 µM
[30] = second compound 3 µM, first compound 10 µM

SMILES | IC50 (second compound 0.03 µM) [µM] | IC50 (second compound 0.0949 µM) [µM] | IC50 (second compound 0.3 µM) [µM] | IC50 (second compound 0.949 µM) [µM] | IC50 (second compound 3 µM) [µM] | viability, T/C [1] [%] | viability, T/C [2] [%] | viability, T/C [3] [%] | viability, T/C [4] [%] | viability, T/C [7] [%] | viability, T/C [8] [%] | viability, T/C [9] [%] | viability, T/C [10] [%] | viability, T/C [13] [%] | viability, T/C [14] [%] | viability, T/C [15] [%] | viability, T/C [16] [%] | viability, T/C [19] [%] | viability, T/C [20] [%] | viability, T/C [21] [%] | also measured
C#Cc1c(F)ccc2cc(O)cc(-c3ncc4c(N5CC6CCC(C5)N6)nc(OCC56CCCN5CC(F)C6)nc4c3F)c12 (stereo not given) + CCN1C(C(=O)NC23CCC(C(=O)O)(CC2)CC3)C(c2cccc(Cl)c2F)C2(C(=O)Nc3cc(Cl)ccc32)C12CCCCC2 | > 10 | > 10 | > 10 | > 10 | > 10 | 71.3 | 72.9 | 79.2 | 75.8 | 70.3 | 83.3 | 75.7 | 76.7 | 84.6 | 73.6 | 89.1 | 72.6 | 66.8 | 72 | 73 | viability, T/C [5]: 78.4%; viability, T/C [6]: 68.4%; viability, T/C [11]: 71.2%; viability, T/C [12]: 77%; viability, T/C [17]: 60.8%; viability, T/C [18]: 51%; viability, T/C [22]: 60.9%; viability, T/C [23]: 61.1%; viability, T/C [24]: 52.5%; viability, T/C [25]: 66.5%; viability, T/C [26]: 62.2%; viability, T/C [27]: 57.8%; viability, T/C [28]: 59.8%; viability, T/C [29]: 60.1%; viability, T/C [30]: 68.8%
C=C(F)C(=O)N1CCN(c2nc(OCC3CCCN3C)nc3c2CCN(c2cccc4cccc(Cl)c24)C3)CC1CC#N (stereo not given) + CCN1C(C(=O)NC23CCC(C(=O)O)(CC2)CC3)C(c2cccc(Cl)c2F)C2(C(=O)Nc3cc(Cl)ccc32)C12CCCCC2 | > 10 | > 10 | > 10 | > 10 | 3.89 | 56.3 | 61.1 | 65.2 | 63.1 | 87.5 | 59 | 77.5 | 75.6 | 92.4 | 85.3 | 106 | 63.6 | 88.5 | 80.3 | 97.5 | viability, T/C [5]: 72.9%; viability, T/C [6]: 65.6%; viability, T/C [11]: 67%; viability, T/C [12]: 66.2%; viability, T/C [17]: 82.8%; viability, T/C [18]: 68.8%; viability, T/C [22]: 62.1%; viability, T/C [23]: 55.4%; viability, T/C [24]: 57%; viability, T/C [25]: 84.8%; viability, T/C [26]: 74.8%; viability, T/C [27]: 73%; viability, T/C [28]: 60.8%; viability, T/C [29]: 50.8%; viability, T/C [30]: 42.7%
C=CC(=O)N1CCN(c2nc(=O)n(-c3c(C)ccnc3C(C)C)c3nc(-c4c(O)cccc4F)c(F)cc23)C(C)C1 (stereo not given) + CCN1C(C(=O)NC23CCC(C(=O)O)(CC2)CC3)C(c2cccc(Cl)c2F)C2(C(=O)Nc3cc(Cl)ccc32)C12CCCCC2 | > 10 | > 10 | > 10 | > 10 | > 10 | 62.4 | 76.1 | 73.3 | 87.7 | 84.9 | 85.3 | 99.8 | 103 | 75.7 | 85.3 | 93.6 | 94.5 | 77.7 | 71 | 90.6 | viability, T/C [5]: 106%; viability, T/C [6]: 108%; viability, T/C [11]: 98.8%; viability, T/C [12]: 124%; viability, T/C [17]: 90.2%; viability, T/C [18]: 101%; viability, T/C [22]: 77.7%; viability, T/C [23]: 81%; viability, T/C [24]: 117%; viability, T/C [25]: 85.9%; viability, T/C [26]: 76.5%; viability, T/C [27]: 59%; viability, T/C [28]: 75.8%; viability, T/C [29]: 79.8%; viability, T/C [30]: 89.1%
CNC(C)C(=O)NC1CN(S(=O)(=O)c2cccc(S(=O)(=O)N3CCC4CCC(C(=O)NC(c5ccccc5)c5ccccc5)N4C(=O)C(NC(=O)C(C)NC)C3)c2)CCC2CCC(C(=O)NC(c3ccccc3)c3ccccc3)N2C1=O (stereo not given) + CCN1C(C(=O)NC23CCC(C(=O)O)(CC2)CC3)C(c2cccc(Cl)c2F)C2(C(=O)Nc3cc(Cl)ccc32)C12CCCCC2 | > 1 | > 1 | > 1 | > 1 | > 1 | 94.7 | 114 | 106 | 93 | 100 | 100 | 108 | 89.3 | 99.4 | 99.8 | 96.6 | 122 | 107 | 104 | 105 | viability, T/C (second compound 0.03 µM, first compound 0.00316 µM): 74.7%; viability, T/C (second compound 0.03 µM, first compound 0.01 µM): 78.1%; viability, T/C (second compound 0.0949 µM, first compound 0.00316 µM): 92.5%; viability, T/C (second compound 0.0949 µM, first compound 0.01 µM): 93.9%; viability, T/C (second compound 0.3 µM, first compound 0.00316 µM): 101%; viability, T/C (second compound 0.3 µM, first compound 0.01 µM): 99.7%; viability, T/C (second compound 0.949 µM, first compound 0.00316 µM): 98.1%; viability, T/C (second compound 0.949 µM, first compound 0.01 µM): 93.2%; viability, T/C [22]: 106%; viability, T/C (second compound 3 µM, first compound 0.00316 µM): 86.2%; viability, T/C (second compound 3 µM, first compound 0.01 µM): 86.9%; viability, T/C [25]: 100%; viability, T/C [26]: 104%; viability, T/C [27]: 93.8%; viability, T/C [28]: 118%
